For one data set, the system named is TK6 cells. Conditions: positive control 6 µg/mL (21 µM), 3 h + S9 mix. The method, then: These articles have been recommended for use in the OECD test guideline (Test No. 487)[49]. For metabolic activation, pre-cultured TK6 cells with the culture medium were supplemented with Sprague–Dawley rat liver mix (S9 mix, IEDA TRADING CORPORATION, Japan) at 3.33 vol%. Then, compound was mixed with the cell suspension and treated under the following treatment conditions: • Short-term treatment for 3 h without S9 mix, followed by a 21-h culture (−S9 mix assay), • Short-term treatment for 3 h with S9 mix, followed by a 21-h culture (+S9 mix assay), or • Continuous treatment for 24 h without S9 mix (24-h assay). For treatment conditions 1 and 2, the cells in each well were centrifuged after the 3-h treatment, the supernatants were discarded, and the cells were washed twice with culture medium. The cells were further cultured with fresh culture medium for 21 h. The compound-treated cells were examined by the unaided eye for precipitation of compound at the start and end of treatment. After treatment, the rest of each cell suspension was centrifuged and then the cells were suspended in a 0.075 mol/L KCl solution at room temperature for 10 min. Then, 25 vol% acetic acid containing methanol was added and the centrifuged cells were fixed. The fixed cells were resuspended in a small amount of 3 vol% acetic acid containing methanol, which was changed two times by centrifugation. Finally, a drop of the cell suspension was transferred onto a slide and dried at room temperature. The slides were stained at room temperature in a 3 vol% Giemsa solution (Merck KGaA) diluted with Sörensen phosphate buffer (1/15 mol/L, pH 6.8, Muto Pure Chemicals Co. Ltd.). Four slides per dose (2 slides per well) were prepared. Each slide was coded randomly. The test was conducted at the following doses of TEC-1. -S9 mix assay: 1.5, 1.7, 1.9, 2.1, 2.3, 2.5, 2.7, 2.9, and 3.1 µg/mL, + S9 mix assay: 1.9, 2.1, 2.3, 2.5, 2.7, 2.9, 3.1, 3.3, and 3.5 µg/mL, 24-h assay: 0.9, 1.1, 1.3, 1.5, 1.7, 1.9, 2.1, 2.3, and 2.5 µg/mL. To perform scoring for compound and negative control groups, the number of cells in the suspensions was counted using a Coulter Counter (Z2; Beckman Coulter, Inc.). The positive control groups were not determined. A portion (0.5 mL) of the cell suspension was diluted with 20 mL of Isoton II, and 0.5 mL of this solution was used for cell counts. The cell number per 1 mL at each culture was calculated by the following formula. Cellnumber/mL=Dilutionfactor×valueof1stcount+valueof2ndcount/2×2
The population doubling (PD) and relative population doubling (RPD) at each concentration was calculated by the following formula. PD=log10cell number at the end of culture/cell number at the start of treatment∗/log102∗:1×10^5cells/mL.
RPD%=PD of the compound-treated group/PD of the negative control group×100 For the treated groups, the 3 consecutive concentrations were selected as follows. […] For all concentrations, 4000 mononuclear cells with cytoplasm were analyzed and the number of cells with micronucleus (micronuclei) was counted using a microscope (× 600). Micronucleus is identified as a round or oval small nucleus in the cytoplasm with the same staining intensity as the main nucleus. The diameter of each micronucleus should be less than 1/2 of the diameter of the main nucleus. Two investigators observed the slides. Each investigator scored 1000 cells for the frequency of micronucleated cells. Data from the two investigators were combined for each culture and the combined data from duplicate cultures were pooled for each concentration for each treatment condition. A cell having one or more micronuclei was recorded as a micronucleated cell.

In the next data set the test system is FOXM1. The data set is described as follows: qPCR of FOXM1 transcripts in cynomolgus monkey fibroblasts (NCMDF). Type of data set: cell-based. Conditions: 24 h. The protocol:
(§1) GM03813 fibroblasts, GM24468-derived MNs, NRK-49F, MDCK, CV-1, or NCMDF cells were plated at a density of 0.5 or 1.5 × 10^4, 4 × 10^4, 5 × 10^3, 5 × 10^3, 8 × 10^3, or 6 × 10^3 cells/well on 96-well plates, respectively. After approximately 6 h, the medium was added with the same volume of culture medium containing each compound at the concentration of 0.06, 0.2, 0.6, 0.2, and 6 µM. The final concentration of DMSO was adjusted to 0.1% in culture condition.
In the instances of using NRK-49F, MDCK, CV-1 or NCMDF, cell lysis and reverse transcription were carried out using Custom Cells to CT Lysis Components (Ambion) and Cells-to-CT RT Components (Ambion), each in accordance with manufacturer’s recommendations. qPCR was conducted using TaqMan Fast Advanced Master Mix. The final concentrations of primers and probes were adjusted to 0.4 µM and 0.15 µM, respectively. Cycle conditions were as follows; 50 °C for 2 min and 95 °C for 2 s; followed by 40 cycles of denaturation at 95 °C for 1 s; annealing and elongation at 60 °C for 20 s in the ABI7900HT RT-PCR system (Applied Biosystems, USA). The relative quantification in gene expression was determined using the 2−ΔΔCt method.
A general note: In qPCR the cycle at which signal appears reflects the starting amount.

A further data set concerns FOXM1a. Description: qPCR of FOXM1a variant in GM03813 fibroblasts. Type of data set: cell-based, human. Particulars: 24 h, 200% total target mRNA increase, 95% CI in brackets. The method, then: as §1
(§2) All cells were treated with above compounds for 24 h and washed once with Dulbecco’s Phosphate-Buffered Saline without Ca and Mg [D-PBS (–)] (Wako or Nakarai Tesque). In case of using GM03813 or GM24468-derived MNs, cell lysis and reverse transcription were carried out using SuperPrep Cell Lysis & RT Kit for qPCR in accordance with manufacturer’s recommendations (Toyobo, Japan). qPCR was performed using THUNDERBIRD Probe qPCR Mix (Toyobo). The final concentrations of primers and probes were adjusted to 0.4 µM and 0.15 µM, respectively (Supplementary Table 1). Cycle conditions were as follows; 95 °C for 1 min; followed by 40 cycles of denaturation at 95 °C for 15 s; annealing and elongation at 60 °C for 1 min in the ViiA7 RT-PCR system (Thermo Fisher Scientific). The copy numbers of each target were normalized to those of GAPDH.

A further data set has as its system cynomolgus monkeys. Particulars: cynomolgus monkey, in vivo; cited from earlier work.
Another data set deals with FL-SMN2 mRNA. Description: qPCR of FL-SMN2 transcripts in SMA type II fibroblasts (GM03813). Type of data set: cell-based, human. Particulars: 24 h, 50% total FL-SMN2 mRNA increase, normalized to GAPDH, 95% CI in brackets. The method, then:
as §1, §2

Details of data set [1]: method as in PMID 30302786. Particulars: Phase I clinical trial, 18 mg/individual; cited from earlier work.
A further data set concerns FOXM1ΔC. The data set is described as follows: qPCR of FOXM1ΔC variant in GM03813 fibroblasts. Type of data set: cell-based, human. Particulars: 24 h, 300% total target mRNA increase, 95% CI in brackets. The method, then: as §1, §2
A further data set concerns FOXM1b. Description: qPCR of FOXM1b/c variant in GM03813 fibroblasts. Type of data set: cell-based, human. The protocol: as §1, §2
Details of data set [2]: method as in PMID 30044619. Particulars: in vitro and in vivo; cited from earlier work.

Marks after values point to notes of the source that are not given here.

On to `O=P1(N(CCCl)CCCl)NCCCO1` (stereo not shown) [CP, cyclophosphamide, reference compound], for which, in the data set with TK6 cells, the “Micronucleated cells Well 1” value came to 39 and the “Micronucleated cells Well 2” value is 46. For the same molecule, the “Micronucleated cells Total” value with TK6 cells (counted in 4000 cells) was found to be 85. Further, the “Micronucleated cells (%)” value in the data set with TK6 cells (p < 0.01) was “(2.13) ** %”.
A word on the EC50: it is the midpoint of the concentration-response curve. Take `Cc1cn2nc(-c3cc(=O)n4cc(N5CCNC6(CC6)C5)ccc4n3)cc(C)c2n1` [Risdiplam]: in the data set on FOXM1, the “FOXM1 splicing in cynomolgus monkey cells” value was “FOXM1 mis-splicing was similarly observed”. Also, the “EC3.0× FOXM1a” value with FOXM1a is 24.2 (4.49–78.5) nM. Also, in the data set on cynomolgus monkeys, the “findings in 39-week toxicological study” value was “pathological intestinal and pancreatic changes, and irreversible retinal degeneration”. The “EC1.5× FL-SMN2” value with FL-SMN2 mRNA was 15.8 (8.81–32.8) nM. Further, the “exposure cap, AUC0–24h in plasma” value in data set [1] is listed as 1500 ng·h/mL. Also, the “EC4.0× FOXM1ΔC” value in the data set on FOXM1ΔC was 38.9 (6.98–85.0) nM. Further, the “Selectivity FOXM1b /FL-SMN2” value with FOXM1b (EC50 of FOXM1b divided by EC1.5× of FL-SMN2) turned out to be 8. For the same molecule, a half-maximal response in the data set on FOXM1b (Homo sapiens, Fibroblast, GM03813 fibroblasts, 24 h, 50% total target mRNA reduction, 95% CI in brackets) (EC50) required 124 nM. Also, the micronucleus induction result in data set [2] is “induces micronucleation in vitro and in vivo”.
